{"source": "patent US20130317064A1", "about": "(priority 2011, published 2013)", "data": [{"smiles": "Cc1cc(C(F)(F)F)nn1CC(=O)N1CCC(c2nc(NC(=O)C3=C(O)CCCC3=O)cs2)CC1", "note": "[I.a.001, 2-hydroxy-6-oxo-cyclohex-1-enecarboxylic acid (2-{1-[2-(5-methyl-3-trifluoromethyl-pyrazol-1-yl)-acetyl]-piperidin-4-yl}-thiazol-4-yl)-amide]", "values": [{"measurement": "melting point", "value": "102 to 105", "unit": "°C"}]}]}
